# Measurements from US20240025887A1, “THIENYL AND CYCLOALKYL AMINOPYRIMIDINE COMPOUNDS AS INHIBITORS OF NUAK KINASES, COMPOSITIONS AND USES THEREOF” (Ontario Institute for Cancer Research (OICR), priority 2021, published 2024).
# Assays:
# MDA-MB-231 cells = assay: Tumor cell growth inhibition assay (ATPlite); assay type: cell-based; conditions: Homo sapiens, 120 h, MDA-MB-231 breast tumor cell line, 5 days
# Method: MDA-MB-231 cells were seeded into a 384-well plate at 1,000 cells/well in 50 μl medium (Alpha-MEM containing 10% FBS, […] Normocin, Invivogen and […] Gentamycin, Invitrogen). Plates were then incubated overnight for the cells to attach. An HP D300 digital dispenser was used to dose cells with DMSO or test compounds across a 16-point range of concentrations (high dose of 10 uM to low dose of 5 nM). Plates were incubated in a humidified 5% CO2 incubator at 37° C. After 5 days, plates were removed from the incubator and equilibrated to room temperature. An equal volume of ATPlite assay reagent was then added to each well, and samples processed according to manufacturer's instructions (Perkin Elmer). Luminescent signals were then measured using an Envision plate reader equipped with a US-Luminescence detector.
# NUAK2 (h) = biological target: T1, NUAK2 (h) (Homo sapiens, UniProt Q9H093); assay: NUAK2 enzymatic assay (radiometric, Eurofins); assay type: biochemical; conditions: for IC50: radiometric, full-length recombinant enzyme; for AUR-A (IC50, nM)/NUAK2 (IC50, nM): NUAK2 selectivity over Aurora-A, ratio of IC50s
# T1 construct: This assay was done radiometrically using full-length, recombinant enzyme; purchased Eurofins
# T1 sequence (Q9H093 1-628): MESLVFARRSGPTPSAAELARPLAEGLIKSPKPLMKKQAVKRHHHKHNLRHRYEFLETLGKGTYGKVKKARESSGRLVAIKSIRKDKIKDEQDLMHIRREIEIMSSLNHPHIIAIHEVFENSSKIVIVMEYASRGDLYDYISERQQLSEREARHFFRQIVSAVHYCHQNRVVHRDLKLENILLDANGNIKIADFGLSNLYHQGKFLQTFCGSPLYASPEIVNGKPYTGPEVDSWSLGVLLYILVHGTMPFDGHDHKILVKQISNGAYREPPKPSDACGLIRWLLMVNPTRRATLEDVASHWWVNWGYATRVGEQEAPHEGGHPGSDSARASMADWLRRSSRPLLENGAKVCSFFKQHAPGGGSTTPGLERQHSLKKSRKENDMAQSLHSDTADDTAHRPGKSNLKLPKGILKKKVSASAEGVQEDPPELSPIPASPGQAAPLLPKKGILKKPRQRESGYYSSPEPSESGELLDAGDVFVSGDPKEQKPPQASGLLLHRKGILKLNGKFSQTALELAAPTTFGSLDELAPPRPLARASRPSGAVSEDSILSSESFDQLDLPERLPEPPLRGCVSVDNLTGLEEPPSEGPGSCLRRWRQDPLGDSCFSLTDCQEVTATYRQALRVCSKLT
# Outline: (§1)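 Radiometric assay with full-length recombinant NUAK2 in 8 mM MOPS pH 7.0, 0.2 mM EDTA, 10 mM magnesium acetate, 300 μM peptide substrate and [33P]-ATP, 40 min at room temperature. Phosphoric acid stop, filter capture, scintillation counting. Aurora A and NUAK1 used as counter screens.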
# Aurora A = biological target: T2, Aurora A (Homo sapiens, UniProt O14965); assay: Aurora A counter screen; assay type: biochemical; conditions: read-out: AUR-A (IC50)
# T2 sequence (O14965 1-403): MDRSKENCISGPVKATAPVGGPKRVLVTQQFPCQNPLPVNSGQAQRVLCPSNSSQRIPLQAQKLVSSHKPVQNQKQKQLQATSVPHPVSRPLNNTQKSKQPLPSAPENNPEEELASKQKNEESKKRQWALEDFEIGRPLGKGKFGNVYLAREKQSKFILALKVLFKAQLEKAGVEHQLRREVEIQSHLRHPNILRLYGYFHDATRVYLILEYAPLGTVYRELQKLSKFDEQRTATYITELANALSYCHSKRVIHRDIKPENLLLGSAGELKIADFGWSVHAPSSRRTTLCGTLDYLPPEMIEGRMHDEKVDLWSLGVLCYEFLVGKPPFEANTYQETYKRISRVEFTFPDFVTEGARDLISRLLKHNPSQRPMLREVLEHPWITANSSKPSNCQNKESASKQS
# Outline: as §1
# NUAK1 = biological target: T3, NUAK1 (Homo sapiens, UniProt O60285); assay: NUAK1 counter screen; assay type: biochemical
# T3 sequence (O60285 1-661): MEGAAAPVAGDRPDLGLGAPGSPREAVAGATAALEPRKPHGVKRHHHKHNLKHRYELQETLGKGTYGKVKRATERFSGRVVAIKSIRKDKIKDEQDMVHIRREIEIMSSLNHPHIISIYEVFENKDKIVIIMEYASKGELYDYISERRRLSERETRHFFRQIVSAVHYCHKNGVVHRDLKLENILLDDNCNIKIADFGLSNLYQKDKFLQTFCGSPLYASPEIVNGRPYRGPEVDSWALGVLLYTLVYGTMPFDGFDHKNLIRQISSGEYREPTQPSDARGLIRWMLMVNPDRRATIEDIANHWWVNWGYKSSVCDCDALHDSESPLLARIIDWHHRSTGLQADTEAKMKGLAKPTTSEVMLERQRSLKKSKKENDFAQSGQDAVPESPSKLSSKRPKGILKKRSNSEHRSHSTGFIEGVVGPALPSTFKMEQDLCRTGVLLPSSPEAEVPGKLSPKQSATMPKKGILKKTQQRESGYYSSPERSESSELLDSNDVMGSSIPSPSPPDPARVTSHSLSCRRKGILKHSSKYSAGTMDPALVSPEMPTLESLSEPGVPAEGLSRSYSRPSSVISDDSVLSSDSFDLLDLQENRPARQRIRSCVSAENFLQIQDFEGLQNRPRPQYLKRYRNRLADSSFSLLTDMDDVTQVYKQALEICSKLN
# Outline: as §1
SMILES,IC50 (MDA-MB-231 cells) [nM],IC50 (NUAK2 (h)) [nM],IC50 (Aurora A) [nM],IC50 (NUAK1) [nM],"AUR-A (IC50, nM)/NUAK2 (IC50, nM) (NUAK2 (h))"
"CN1C2CCC1CN(c1ccc(Nc3ncc(Cl)c(Nc4ccsc4C(N)=O)n3)c(OC(F)F)c1)C2 [Compound I-30, 3-((5-chloro-2-((2-(difluoromethoxy)-4-(8-methyl-3,8-diazabicyclo[3.2.1]octan-3-yl)phenyl)amino)pyrimidin-4-yl)amino)thiophene-2-carboxamide]",144,0.1 to 10,101 to 1000,11 to 100,
"CN1CCN(C2CCN(c3ccc(Nc4ncc(Cl)c(N[C@@H]5CCCC[C@H]5C(N)=O)n4)c(OC(F)F)c3)CC2)CC1 [Compound I-87, (1R,2R)-2-((5-chloro-2-((2-(difluoromethoxy)-4-(4-(4-methylpiperazin-1-yl)piperidin-1-yl)phenyl)amino)pyrimidin-4-yl)amino)cyclohexane-1-carboxamide]",932,11 to 100,> 1000,11 to 100,
"CN1CCN(C2CCN(c3ccc(Nc4ncc(C(F)(F)F)c(Nc5ccsc5C(N)=O)n4)c(OC(F)F)c3)CC2)CC1 [Compound I-52, 3-((2-((2-(difluoromethoxy)-4-(4-(4-methylpiperazin-1-yl)piperidin-1-yl)phenyl)amino)-5-(trifluoromethyl)pyrimidin-4-yl)amino)thiophene-2-carboxamide]",142,0.1 to 10,11 to 100,0.1 to 10,
"CN1CCN(C2CCN(c3ccc(Nc4ncc(Cl)c(Nc5ccsc5C(N)=O)n4)c(OC(F)F)c3)CC2)CC1 [Compound I-41, 3-((5-chloro-2-((2-(difluoromethoxy)-4-(4-(4-methylpiperazin-1-yl)piperidin-1-yl)phenyl)amino)pyrimidin-4-yl)amino)thiophene-2-carboxamide]",202,11 to 100,101 to 1000,11 to 100,30
"CC(C)(C)N1CCN(C2CCN(c3ccc(Nc4ncc(C(F)(F)F)c(Nc5ccsc5C(N)=O)n4)c(OC(F)F)c3)CC2)CC1 [Compound I-79, 3-((2-((4-(4-(4-(tert-butyl)piperazin-1-yl)piperidin-1-yl)-2-(difluoromethoxy)phenyl)amino)-5-(trifluoromethyl)pyrimidin-4-yl)amino)thiophene-2-carboxamide]",,11 to 100,101 to 1000,11 to 100,
"NC(=O)c1sccc1Nc1nc(Nc2ccc(N3CCOCC3)cc2OC(F)F)ncc1Cl [Compound I-24, 3-((5-chloro-2-((2-(difluoromethoxy)-4-morpholinophenyl)amino)pyrimidin-4-yl)amino)thiophene-2-carboxamide]",,11 to 100,11 to 100,11 to 100,
"CN(C)[C@@H]1CCN(c2ccc(Nc3ncc(Cl)c(Nc4ccsc4C(N)=O)n3)c(OC(F)F)c2)C1 [Compound I-55, (R)-3-((5-chloro-2-((2-(difluoromethoxy)-4-(3-(dimethylamino)pyrrolidin-1-yl)phenyl)amino)pyrimidin-4-yl)amino)thiophene-2-carboxamide]",,11 to 100,101 to 1000,0.1 to 10,
"CC(C)(C)N1CCN(c2ccc(Nc3ncc(Cl)c(Nc4sccc4C(N)=O)n3)c(OC(F)F)c2)CC1 [Compound I-22, 2-((2-((4-(4-(tert-butyl)piperazin-1-yl)-2-(difluoromethoxy)phenyl)amino)-5-chloropyrimidin-4-yl)amino)thiophene-3-carboxamide]",,11 to 100,11 to 100,11 to 100,
"NC(=O)c1sccc1Nc1nc(Nc2ccc(N3CCC(N4CCN5CCC[C@@H]5C4)CC3)cc2OC(F)F)ncc1Cl [Compound I-71, (R)-3-((5-chloro-2-((2-(difluoromethoxy)-4-(4-(hexahydropyrrolo[1,2-a]pyrazin-2(1H)-yl)piperidin-1-yl)phenyl)amino)pyrimidin-4-yl)amino)thiophene-2-carboxamide]",,11 to 100,11 to 100,11 to 100,
"NC(=O)c1sccc1Nc1nc(Nc2ccc(N3CCC(N4CCOCC4)CC3)cc2OC(F)F)ncc1Cl [Compound I-43, 3-((5-chloro-2-((2-(difluoromethoxy)-4-(4-morpholinopiperidin-1-yl)phenyl)amino)pyrimidin-4-yl)amino)thiophene-2-carboxamide]",,0.1 to 10,101 to 1000,11 to 100,
"CN1CCN(C2CCN(c3ccc(Nc4ncc(Cl)c(N[C@@H]5CCC[C@@H]5C(N)=O)n4)c(OC(F)F)c3)CC2)CC1 [Compound I-83, (1S,2R)-2-((5-chloro-2-((2-(difluoromethoxy)-4-(4-(4-methylpiperazin-1-yl)piperidin-1-yl)phenyl)amino)pyrimidin-4-yl)amino)cyclopentane-1-carboxamide]",,11 to 100,101 to 1000,11 to 100,
"COc1cc(N2CCC(N3CCN(C)CC3)CC2)ccc1Nc1ncc(Cl)c(Nc2ccsc2C(N)=O)n1 [Compound C-3, reference compound]",,11 to 100,101 to 1000,11 to 100,6
"CN1CCN(c2ccc(Nc3ncc(Cl)c(N[C@@H]4CCC[C@@H]4C(N)=O)n3)c(C(F)(F)F)c2)CC1 [Compound I-84, (1S,2R)-2-((5-chloro-2-((4-(4-methylpiperazin-1-yl)-2-(trifluoromethyl)phenyl)amino)pyrimidin-4-yl)amino)cyclopentane-1-carboxamide]",,11 to 100,> 1000,101 to 1000,
"CN1CCN(c2ccc(Nc3ncc(Cl)c(N[C@@H]4CCC[C@@H]4C(N)=O)n3)c(OC(F)F)c2)CC1 [Compound I-86, (1S,2R)-2-((5-chloro-2-((2-(difluoromethoxy)-4-(4-methylpiperazin-1-yl)phenyl)amino)pyrimidin-4-yl)amino)cyclopentane-1-carboxamide]",,11 to 100,> 1000,11 to 100,
"CC(C)N1CCN(c2ccc(Nc3ncc(Cl)c(Nc4sccc4C(N)=O)n3)c(OC(F)F)c2)CC1 [Compound I-13, 2-((5-chloro-2-((2-(difluoromethoxy)-4-(4-isopropylpiperazin-1-yl)phenyl)amino)pyrimidin-4-yl)amino)thiophene-3-carboxamide]",,0.1 to 10,11 to 100,11 to 100,
